Several values for one entry are separate records, joined by “and”; a condition that tells them apart may be missing. Equal entries are not always repeated.
CC(=O)O.NCCO
viscosity
Details | 293.15 K | 298.15 K | 303.15 K | 308.15 K | 313.15 K | 318.15 K | 323.15 K
101 kPa | 5032 mPa·s | 3167 mPa·s | 2044 mPa·s | 1369 mPa·s | 947.7 mPa·s | 661 mPa·s | 477.5 mPa·s
101.3 kPa | 3423 mPa·s | 2300 mPa·s and 2300 mPa·s and 2267 mPa·s | 1502 mPa·s | 1021 mPa·s | 711.1 mPa·s | 506.5 mPa·s | 368.3 mPa·s

CCCCC(=O)OCC
101.33 kPa
Details | viscosity [mPa·s]
293.15 K | 0.846
303.15 K | 0.694
313.15 K | 0.629

OC1CCCCC1
viscosity
Details | 293.15 K | 298.15 K | 303.15 K | 308 K | 308.15 K | 313.15 K | 318.15 K | 318.16 K | 323.15 K
100 kPa | 83.29 mPa·s | 58.97 mPa·s | 43.42 mPa·s | – | 33.66 mPa·s and 32.39 mPa·s | 25.52 mPa·s and 25.85 mPa·s | 20.14 mPa·s | 19.5 mPa·s | –
101 kPa | – | – | 23.6 mPa·s and 39.55 mPa·s | 27.95 mPa·s | 27.95 mPa·s | – | – | – | 8.89 mPa·s

CC(C)CC(C)O (centres undefined)
Details | viscosity
298.15 K, 101.33 kPa | 3.823 mPa·s and 3.823 mPa·s

C[N+](C)(C)CCC[n+]1ccccc1.N#C[N-]C#N.N#C[N-]C#N
100 kPa
Details | viscosity
293.15 K | 2191 mPa·s and 2191 mPa·s
298.15 K | 1306 mPa·s
303.15 K | 830.8 mPa·s and 830.8 mPa·s
308.15 K | 557.7 mPa·s
313.15 K | 386 mPa·s and 386 mPa·s
318.15 K | 280.7 mPa·s
323.15 K | 210.2 mPa·s and 210.2 mPa·s

CCN(CC)CCO
viscosity
Details | 298.15 K | 303.15 K | 313.15 K | 323.15 K
101.3 kPa | – | 3.308 mPa·s | 2.414 mPa·s | 1.466 mPa·s
101.33 kPa | 4.022 mPa·s and 4.01 mPa·s | 3.308 mPa·s | 2.414 mPa·s | –

CC(C)=CC(=O)C=C(C)C
Details | viscosity [mPa·s]
298.15 K, 101 kPa | 1.394

CC/C=C\CCO
100 kPa
Details | viscosity [mPa·s]
293.15 K | 3.336
298.15 K | 2.921
303.15 K | 2.566
308.15 K | 2.266
313.15 K | 2.012
318.15 K | 1.807

CC1(C)OCC(CO)O1 (centres undefined)
101 kPa
Details | viscosity [mPa·s]
298.15 K | 9.643
308.15 K | 6.834
318.15 K | 5.076

CCCCCCCCCC
viscosity
Details | 293.15 K | 298.15 K | 303.15 K | 308.15 K | 313.15 K | 318.15 K | 323.15 K
100 kPa | 0.928 mPa·s and 0.918 mPa·s | 0.853 mPa·s and 0.874 mPa·s | 0.807 mPa·s and 0.795 mPa·s (2×) and 0.791 mPa·s | 0.745 mPa·s and 0.744 mPa·s | 0.691 mPa·s and 0.7 mPa·s (2×) and 0.699 mPa·s | 0.66 mPa·s and 0.659 mPa·s | 0.624 mPa·s
101 kPa | – | – | 0.802 mPa·s and 0.803 mPa·s | – | 0.6883 mPa·s | 0.66 mPa·s and 0.6182 mPa·s and 0.6466 mPa·s | 0.6085 mPa·s
101.32 kPa | 0.91 mPa·s | – | 0.785 mPa·s | – | – | – | –
101.33 kPa | 0.91 mPa·s | – | 0.774 mPa·s and 0.793 mPa·s and 0.755 mPa·s | – | 0.673 mPa·s | 0.619 mPa·s | –
103 kPa | – | 0.842 mPa·s | – | 0.727 mPa·s | – | 0.64 mPa·s | –

CC(=O)CC(C)(C)O
Details | viscosity [mPa·s]
298.15 K, 101 kPa | 2.902

C1CCCCCCC1
101 kPa
Details | viscosity
298.15 K | 2.25 mPa·s
303 K | 2.007 mPa·s
303.15 K | 2.031 mPa·s
308.15 K | 1.818 mPa·s (2×) and 1.818 mPa·s
313.15 K | 1.649 mPa·s and 1.692 mPa·s

CCCCC
viscosity
Details | 100 kPa | 101 kPa | 101.33 kPa
293.15 K | 0.222 mPa·s | – | –
298.15 K | 0.212 mPa·s | 0.2121 mPa·s and 0.214 mPa·s | 0.223 mPa·s and 0.223 mPa·s and 0.237 mPa·s

CS(C)=O
Details | viscosity
293.15 K, 100 kPa | 2.11 mPa·s and 2.23 mPa·s and 2.239 mPa·s
298 K, 101.3 kPa | 2.024 mPa·s
298.15 K, 101 kPa | 1.79 mPa·s
298.15 K, 101.3 kPa | 1.944 mPa·s and 1.926 mPa·s
298.15 K, 101.33 kPa | 1.848 mPa·s
299 K, 101 kPa | 3.143 mPa·s
302.4 K, 101 kPa | 3.676 mPa·s
303.15 K, 100 kPa | 1.79 mPa·s
303.15 K, 101.3 kPa | 1.788 mPa·s and 1.788 mPa·s (2×) and 1.788 mPa·s
308.15 K, 100 kPa | 1.63 mPa·s
308.15 K, 101.33 kPa | 1.498 mPa·s
313.15 K, 100 kPa | 1.5 mPa·s
313.15 K, 101.33 kPa | 1.449 mPa·s and 1.619 mPa·s
318.15 K, 101.3 kPa | 1.31 mPa·s and 1.31 mPa·s
318.15 K, 101.33 kPa | 1.317 mPa·s
323.15 K, 101.3 kPa | 1.284 mPa·s
323.15 K, 101.33 kPa | 1.221 mPa·s and 1.433 mPa·s

CCN(CC)S(C)(=O)=O
Details | viscosity [mPa·s]
303.15 K, 101.33 kPa | 40590

CCCCN(CCC#N)CCCC
Details | viscosity [mPa·s]
303.15 K, 100 kPa | 2.5

CCCCCCn1cc[n+](C)c1.O=S(=O)([N-]S(=O)(=O)C(F)(F)F)C(F)(F)F
viscosity
Details | 293.15 K | 298.15 K | 303.15 K | 308.15 K | 313.15 K | 318.15 K | 323.15 K
100 kPa | 89 mPa·s and 85.15 mPa·s | 65.94 mPa·s | 51.91 mPa·s | 41.36 mPa·s | 33.79 mPa·s | – | –
101 kPa | – | – | 58.3 mPa·s | 50.4 mPa·s | 41.4 mPa·s | 35 mPa·s | 28.8 mPa·s

CCCCCCCO
viscosity
Details | 100 kPa | 101 kPa | 101.3 kPa | 101.33 kPa
293.15 K | 7.018 mPa·s | – | 7.079 mPa·s | –
298 K | 5.956 mPa·s | – | – | –
298.15 K | – | – | 5.758 mPa·s | 5.69 mPa·s and 5.652 mPa·s
303 K | 4.778 mPa·s | – | – | –
303.15 K | 5.014 mPa·s | 4.996 mPa·s and 4.783 mPa·s | 4.814 mPa·s and 4.785 mPa·s | –
308.15 K | 4.275 mPa·s | 4.176 mPa·s and 4.691 mPa·s and 4.069 mPa·s | 4.2 mPa·s and 4.051 mPa·s and 4.691 mPa·s | 4.002 mPa·s and 4.045 mPa·s and 4.175 mPa·s
313 K | 3.228 mPa·s | 3.55 mPa·s | – | –
313.15 K | 3.656 mPa·s and 3.702 mPa·s and 3.735 mPa·s | 3.723 mPa·s and 4.598 mPa·s | 3.579 mPa·s | –
318.15 K | 3.407 mPa·s | – | 3.447 mPa·s | –
323 K | 2.529 mPa·s | – | – | –
323.15 K | 2.741 mPa·s and 2.8 mPa·s | – | – | 2.741 mPa·s and 2.741 mPa·s

Reference: the CheMixHub viscosity set
